In this assay the target is T1, Glucose-6-phosphatase catalytic subunit 1 (Rattus norvegicus) (UniProt P43428).
T1 sequence (whole entry): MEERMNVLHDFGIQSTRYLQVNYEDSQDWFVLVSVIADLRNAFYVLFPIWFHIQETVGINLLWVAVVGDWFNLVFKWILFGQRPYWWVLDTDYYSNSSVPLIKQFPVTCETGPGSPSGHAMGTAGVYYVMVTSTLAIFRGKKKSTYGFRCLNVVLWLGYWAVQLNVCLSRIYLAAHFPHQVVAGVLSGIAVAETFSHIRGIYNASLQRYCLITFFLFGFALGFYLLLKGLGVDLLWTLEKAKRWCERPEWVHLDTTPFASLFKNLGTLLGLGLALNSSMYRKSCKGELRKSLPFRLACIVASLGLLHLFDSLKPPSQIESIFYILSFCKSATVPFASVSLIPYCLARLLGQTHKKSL
The experiment in a line: In vitro inhibition of glucose-6-phosphatase obtained from rat was determined at 100 uM concentration.

This passage reports inhibition results from ChEMBL document CHEMBL1146738, “Synthesis and glucose-6-phosphatase inhibitory activity of (thiouriedo)alkanoic acid esters” (Bioorg Med Chem Lett, 2004).

Turning to `CCOC(=O)CC/N=C(\S)Nc1ccccn1`, the inhibition amounted to 18%.
`CCOC(=O)C(Cc1ccccc1)/N=C(\S)Nc1ccccn1` (stereo not given) had an inhibition of 29%.
To `COC(=O)C(Cc1c[nH]c2ccccc12)/N=C(\S)Nc1ccccn1` (stereo not given) belongs 21.5%; to `COC(=O)C(Cc1c[nH]c2ccccc12)/N=C(\S)Nc1ccc(Cl)cn1` (stereo not given), 52.2%.
In turn, `COC(=O)C(C)/N=C(\S)Nc1ccccn1` (stereo not given) displayed an inhibition of 17.7%.
Then `COC(=O)C/N=C(\S)Nc1ccc(Cl)cn1`, with 74.6%; and `CCOC(=O)C(Cc1ccccc1)/N=C(\S)Nc1ccc(Cl)cn1` (stereo not given), with 50%; and `CCOC(=O)CC/N=C(\S)Nc1ccc(Cl)cn1`, with 54.4%.
Then `N/N=C(\S)Nc1ccccn1`, with 38.5%; and `N=C(N)/N=C(\S)Nc1ccccn1`, with 20%.

By inhibition is commonly meant the percentage by which the read-out fell short of the control. Lower therefore signals little suppression.
